According to US7998987B2, “Inhibitors of c-Met and uses thereof” (Vertex Pharmaceuticals Incorporated, priority 2005, dated 2011):
Where two headings read alike, the source gives them in different places.

Target: c-Met (Homo sapiens, UniProt P08581)
Test: Ki determination for the inhibition of c-Met kinase activity (standard coupled enzyme system)
Type: biochemical
Protocol: Ki Determination for the Inhibition of c-Met
Reactions were carried out in a solution containing 100 mM HEPES (pH 7.5), 10 mM MgCl2, 25 mM NaCl, 300 μM NADH, 1 mM DTT, and 1.5% DMSO. Final substrate concentrations in the assay were 200 μM ATP (Sigma Chemicals, St Louis, Mo.) and 10 μM polyGluTyr (Sigma Chemical Company, St. Louis). Reactions were carried out at 30° C. and 80 nM c-Met. Final concentrations of the components of the coupled enzyme system were 2.5 mM phosphoenolpyruvate, 300 μM NADH, 30 μg/ml pyruvate kinase and 10 μg/ml lactate dehydrogenase.
An assay stock buffer solution was prepared containing all of the reagents listed above with the exception of ATP and a test compound of the present invention. […] The reaction was initiated by the addition of 20 μL of ATP (final concentration 200 μM). Rates of reaction were obtained using a Molecular Devices Spectramax plate reader (Sunnyvale, Calif.) over 10 minutes at 30° C. The Ki values were determined from the rate data as a function of inhibitor concentration.

[1] = coupled enzyme system, 200 μM ATP, 10 μM polyGluTyr, 80 nM c-Met, 30° C., read-out: c-Met Ki

Sequence of c-Met (P08581 25-1390): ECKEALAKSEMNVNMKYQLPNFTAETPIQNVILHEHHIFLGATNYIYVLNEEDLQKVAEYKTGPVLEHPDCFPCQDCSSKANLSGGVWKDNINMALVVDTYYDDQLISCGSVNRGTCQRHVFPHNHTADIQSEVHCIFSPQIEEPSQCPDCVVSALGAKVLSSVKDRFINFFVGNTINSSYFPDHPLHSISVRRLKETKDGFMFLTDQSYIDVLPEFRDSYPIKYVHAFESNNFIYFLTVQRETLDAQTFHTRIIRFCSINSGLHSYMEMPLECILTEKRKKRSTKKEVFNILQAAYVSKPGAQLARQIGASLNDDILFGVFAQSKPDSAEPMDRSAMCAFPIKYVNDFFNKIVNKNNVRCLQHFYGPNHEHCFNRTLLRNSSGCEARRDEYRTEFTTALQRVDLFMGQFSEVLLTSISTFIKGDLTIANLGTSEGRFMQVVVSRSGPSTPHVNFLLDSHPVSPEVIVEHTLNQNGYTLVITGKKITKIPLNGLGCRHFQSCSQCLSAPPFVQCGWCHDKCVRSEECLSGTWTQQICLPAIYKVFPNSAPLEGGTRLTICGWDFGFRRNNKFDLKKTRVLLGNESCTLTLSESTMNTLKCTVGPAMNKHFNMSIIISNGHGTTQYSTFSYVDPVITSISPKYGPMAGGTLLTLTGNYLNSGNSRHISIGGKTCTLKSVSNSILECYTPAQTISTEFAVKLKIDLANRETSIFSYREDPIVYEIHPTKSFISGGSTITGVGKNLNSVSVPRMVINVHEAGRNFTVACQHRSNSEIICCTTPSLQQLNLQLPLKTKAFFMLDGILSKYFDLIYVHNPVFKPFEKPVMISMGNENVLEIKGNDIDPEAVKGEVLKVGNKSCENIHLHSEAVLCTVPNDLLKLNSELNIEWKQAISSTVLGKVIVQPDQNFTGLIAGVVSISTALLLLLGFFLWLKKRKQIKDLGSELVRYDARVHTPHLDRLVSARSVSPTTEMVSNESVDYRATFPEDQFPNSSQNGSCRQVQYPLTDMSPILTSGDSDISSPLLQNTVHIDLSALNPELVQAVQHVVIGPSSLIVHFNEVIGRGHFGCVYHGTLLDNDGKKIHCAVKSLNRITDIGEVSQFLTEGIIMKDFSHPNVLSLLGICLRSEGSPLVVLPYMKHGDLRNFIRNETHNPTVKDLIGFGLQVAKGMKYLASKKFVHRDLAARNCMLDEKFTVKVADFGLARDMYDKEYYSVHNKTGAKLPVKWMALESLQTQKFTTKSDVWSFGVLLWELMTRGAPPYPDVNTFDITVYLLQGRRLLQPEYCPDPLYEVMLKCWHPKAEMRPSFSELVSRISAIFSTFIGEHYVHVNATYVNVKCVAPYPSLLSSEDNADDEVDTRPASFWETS

SMILES | Ki [1] [nM] | Ki [nM]
CC(c1ccc(O)cc1)c1nnc2sc(Nc3cccc(F)c3F)nn12 (centres unmarked) [Compound 101] | < 100 | –
Oc1ccc(CCc2nnc3sc(Nc4cccc(Cl)c4F)nn23)cc1 [Compound 102] | 100 to 2000 | –
Oc1ccc(Cc2nnc3sc(Nc4cccc(F)c4Cl)nn23)cc1Cl [Compound 103] | 100 to 2000 | –
Oc1ccc(Cc2nnc3sc(Nc4cc(F)cc(F)c4)nn23)cc1Cl [Compound 104] | < 100 | –
C[C@@H](c1ccc(O)cc1)c1nnc2sc(Nc3cccc(F)c3)nn12 [Compound 105] | < 100 | –
C[C@H](c1ccc(O)cc1)c1nnc2sc(Nc3cccc(F)c3)nn12 [Compound 106] | < 100 | –
Fc1cccc(Nc2nn3c(Cc4ccc5c(c4)OCO5)nnc3s2)c1 [Compound 107] | < 100 | –
Oc1ccc(Cc2nnc3sc(Nc4cccc(F)c4)nn23)cc1F [Compound 108] | < 100 | –
Oc1cccc(CCc2nnc3sc(Nc4cccc(Cl)c4F)nn23)c1 [Compound 109] | 100 to 2000 | –
Oc1cccc(Cc2nnc3sc(Nc4cccc(F)c4Cl)nn23)c1 [Compound 110] | 100 to 2000 | –
Oc1ccc(CCc2nnc3sc(Nc4cc(F)cc(F)c4)nn23)cc1 [Compound 111] | 100 to 2000 | –
O=C(Nc1cccc(Cl)c1)Nc1nn2c(Cc3ccc(O)cc3)nnc2s1 [Compound 112] | > 2000 | –
O=C(Nc1ccccc1)Nc1nn2c(Cc3ccc(O)cc3)nnc2s1 [Compound 113] | > 2000 | –
O=C(Nc1ccc(F)cc1)Nc1nn2c(Cc3ccc(O)cc3)nnc2s1 [Compound 114] | > 2000 | –
COc1ccc(NC(=O)Nc2nn3c(Cc4ccc(O)cc4)nnc3s2)cc1 [Compound 115] | > 2000 | –
C[C@@H](c1ccc(O)cc1)c1nnc2sc(Nc3cccc(Cl)c3)nn12 [Compound 116] | < 100 | –
C[C@@H](c1ccc(O)cc1)c1nnc2sc(Nc3ccc(Cl)cc3)nn12 [Compound 117] | < 100 | –
C[C@H](c1ccc(O)cc1)c1nnc2sc(Nc3ccc(Cl)cc3)nn12 [Compound 118] | 100 to 2000 | –
Oc1cccc(CCc2nnc3sc(Nc4cc(F)cc(F)c4)nn23)c1 [Compound 120] | > 2000 | –
Oc1cccc(CCc2nnc3sc(Nc4cccc(F)c4F)nn23)c1 [Compound 121] | > 2000 | –
Oc1cccc(Cc2nnc3sc(Nc4cccc(F)c4)nn23)c1 [Compound 122] | 100 to 2000 | –

SMILES | Ki [1] [nM] | Ki [nM]
Oc1cccc(Cc2nnc3sc(Nc4cccc(F)c4F)nn23)c1 [Compound 123] | 100 to 2000 | –
Oc1cccc(Cc2nnc3sc(Nc4cc(F)cc(F)c4)nn23)c1 [Compound 124] | 100 to 2000 | –
Fc1c(Cl)cccc1Nc1nn2c(Cc3ccc4c(c3)OCO4)nnc2s1 [Compound 126] | 100 to 2000 | –
Fc1cc(F)cc(Nc2nn3c(Cc4ccc5c(c4)OCO5)nnc3s2)c1 [Compound 127] | < 100 | –
Oc1ccc(Cc2nnc3sc(Nc4cccc(F)c4F)nn23)cc1Cl [Compound 128] | < 100 | –
Oc1ccc(Cc2nnc3sc(Nc4cccc(Cl)c4F)nn23)cc1F [Compound 130] | 100 to 2000 | –
Oc1ccc(Cc2nnc3sc(Nc4cc(F)cc(F)c4)nn23)cc1F [Compound 131] | < 100 | –
CC(c1ccc(O)cc1)c1nnc2sc(Nc3cccc(Cl)c3F)nn12 (centres unmarked) [Compound 132] | < 100 | –
CC(c1ccc(O)cc1)c1nnc2sc(Nc3cc(F)cc(F)c3)nn12 (centres unmarked) [Compound 133] | < 100 | –
Fc1cccc(Nc2nn3c(Cn4ccc5ncccc54)nnc3s2)c1 [Compound 134] | 100 to 2000 | –
Cc1cccc(Nc2nn3c(Cn4ccc5ncccc54)nnc3s2)c1 [Compound 135] | 100 to 2000 | –
FC(F)(F)c1cccc(Nc2nn3c(Cn4ccc5ncccc54)nnc3s2)c1 [Compound 136] | < 100 | –
Oc1cccc(Cc2nnc3sc(Nc4cccc(C(F)(F)F)c4)nn23)c1 [Compound 137] | 100 to 2000 | –
CC(c1ccc(O)cc1)c1nnc2sc(Nc3cccc(C(F)(F)F)c3)nn12 (centres unmarked) [Compound 138] | < 100 | –
COc1ccc([C@H](C)c2nnc3sc(Nc4cccc(Cl)c4)nn23)cc1 [Compound 157] | 100 to 2000 | –
COc1ccc([C@H](C)c2nnc3sc(Nc4cccc(F)c4)nn23)cc1 [Compound 158] | 100 to 2000 | –
C[C@@H](c1ccc(O)cc1)c1nnc2sc(Nc3ccc(F)c(Cl)c3)nn12 [Compound 159] | < 100 | –
Oc1cccc2c1ccn2Cc1nnc2sc(Nc3cccc(C(F)(F)F)c3)nn12 [Compound 160] | < 100 | –
CC(c1nnc2sc(Nc3cccc(Cl)c3)nn12)n1ccc2ncccc21 (centres unmarked) [Compound 161] | < 100 | –
C[C@@H](c1ccc(O)cc1)c1nnc2sc(Nc3cncc(Cl)c3)nn12 [Compound 162] | < 100 | –
CC(Oc1ccc2ncccc2c1)c1nnc2sc(Nc3cccc(Cl)c3)nn12 (centres unmarked) [Compound 163] | > 2000 | –

SMILES | Ki [1] [nM] | Ki [nM]
CC(Oc1ccc2cccnc2c1)c1nnc2sc(Nc3cccc(Cl)c3)nn12 (centres unmarked) [Compound 164] | > 2000 | –
CC(C)[C@@H](N)C(=O)Oc1ccc([C@H](C)c2nnc3sc(Nc4cccc(F)c4)nn23)cc1 [Compound 165] | < 100 | –
C[C@@H](c1ccc(OC(=O)[C@@H](C)N)cc1)c1nnc2sc(Nc3cccc(F)c3)nn12 [Compound 166] | < 100 | –
C[C@@H](c1ccc(OC(=O)[C@@H](C)N)cc1)c1nnc2sc(Nc3cccc(Cl)c3)nn12 [Compound 167] | < 100 | –
CC(C)[C@@H](N)C(=O)Oc1ccc([C@H](C)c2nnc3sc(Nc4cccc(Cl)c4)nn23)cc1 [Compound 168] | < 100 | –
CSc1cccc(Nc2nn3c(Cn4ccc5c(O)cccc54)nnc3s2)c1 [Compound 169] | < 100 | –
C[C@@H](c1ccc(OP(=O)(O)O)cc1)c1nnc2sc(Nc3cccc(Cl)c3)nn12 [Compound 170] | – | 100 to 2000
Fc1ccc(Cc2nnc3sc(Nc4cccc(Cl)c4)nn23)cc1 [Compound 171] | < 100 | –
C[C@@H](c1ccc(O)c(C(C)(C)C)c1)c1nnc2sc(Nc3cccc(F)c3)nn12 [Compound 172] | 100 to 2000 | –
CC(C)Oc1cccc(Nc2nn3c([C@@H](C)c4ccc(O)cc4)nnc3s2)c1 [Compound 173] | < 100 | –
Oc1ccc(Cc2nnc3ccc(Cl)nn23)cc1 [Compound 174] | 100 to 2000 | –
Oc1ccc(Cc2nnc3ccc(-c4ccccc4)nn23)cc1 [Compound 176] | 100 to 2000 | –
Oc1ccc(Cc2nnc3ccc(N4CCCCC4)nn23)cc1 [Compound 177] | 100 to 2000 | –
Oc1ccc(Cc2nnc3ccc(Nc4ccccc4)nn23)cc1 [Compound 178] | < 100 | –
NC(=O)C1CCCN(c2ccc3nnc(Cc4ccc(O)cc4)n3n2)C1 (centres unmarked) [Compound 179] | > 2000 | –
Oc1ccc(Cc2nnc3ccc(NCCCn4ccnc4)nn23)cc1 [Compound 180] | 100 to 2000 | –
CC(C)Oc1cccc(Nc2ccc3nnc(Cc4ccc(O)cc4)n3n2)c1 [Compound 181] | < 100 | –
CC(C)(C)c1cccc(Nc2ccc3nnc(Cc4ccc(O)cc4)n3n2)c1 [Compound 182] | < 100 | –
CCC(C)c1ccc(Nc2ccc3nnc(Cc4ccc(O)cc4)n3n2)cc1 (centres unmarked) [Compound 183] | 100 to 2000 | –
COc1cccc(Nc2ccc3nnc(Cc4ccc(O)cc4)n3n2)c1 [Compound 184] | < 100 | –
Oc1ccc(Cc2nnc3ccc(Nc4cccc(Cl)c4)nn23)cc1 [Compound 185] | < 100 | –

SMILES | Ki [1] [nM] | Ki [nM]
Oc1ccc(Cc2nnc3ccc(Nc4ccc(Cl)cc4)nn23)cc1 [Compound 186] | 100 to 2000 | –
Oc1ccc(Cc2nnc3ccc(NCC4CCCO4)nn23)cc1 (centres unmarked) [Compound 187] | 100 to 2000 | –
CC(C)C[C@@H](CO)Nc1ccc2nnc(Cc3ccc(O)cc3)n2n1 [Compound 188] | 100 to 2000 | –
C[C@@H](Nc1ccc2nnc(Cc3ccc(O)cc3)n2n1)C1CCCCC1 [Compound 189] | 100 to 2000 | –
O=C1CCN(c2ccc3nnc(Cc4ccc(O)cc4)n3n2)CCN1 [Compound 190] | 100 to 2000 | –
OC[C@H](Cc1ccccc1)Nc1ccc2nnc(Cc3ccc(O)cc3)n2n1 [Compound 191] | > 2000 | –
Oc1ccc(Cc2nnc3ccc(N[C@@H]4C[C@H]4c4ccccc4)nn23)cc1 [Compound 192] | > 2000 | –
CC(C)[C@H](C)Nc1ccc2nnc(Cc3ccc(O)cc3)n2n1 [Compound 193] | 100 to 2000 | –
COc1cccc(N2CCN(c3ccc4nnc(Cc5ccc(O)cc5)n4n3)CC2)c1 [Compound 194] | 100 to 2000 | –
Oc1ccc(Cc2nnc3ccc(NCC4CCCCC4)nn23)cc1 [Compound 195] | 100 to 2000 | –
CN(c1ccc2nnc(Cc3ccc(O)cc3)n2n1)C1CCCCC1 [Compound 196] | 100 to 2000 | –
CCN1CCCC1CNc1ccc2nnc(Cc3ccc(O)cc3)n2n1 (centres unmarked) [Compound 197] | > 2000 | –
OCCCCNc1ccc2nnc(Cc3ccc(O)cc3)n2n1 [Compound 198] | 100 to 2000 | –
O=C1CCCN1CCCNc1ccc2nnc(Cc3ccc(O)cc3)n2n1 [Compound 199] | > 2000 | –
Oc1ccc(Cc2nnc3ccc(N4CCC[C@H]4CN4CCCC4)nn23)cc1 [Compound 200] | > 2000 | –
Oc1ccc(Cc2nnc3ccc(N4CCC(c5ccccc5)C4)nn23)cc1 (centres unmarked) [Compound 201] | > 2000 | –
Oc1ccc(Cc2nnc3ccc(N4CCCC4c4ccc(F)cc4)nn23)cc1 (centres unmarked) [Compound 202] | > 2000 | –
NC(=O)[C@H]1CCC[C@H]1Nc1ccc2nnc(Cc3ccc(O)cc3)n2n1 [Compound 203] | > 2000 | –
Oc1ccc(Cc2nnc3ccc(NCCN4CCOCC4)nn23)cc1 [Compound 204] | > 2000 | –
Oc1ccc(Cc2nnc3ccc(N4CCC(CCc5ccccc5)C4)nn23)cc1 (centres unmarked) [Compound 205] | 100 to 2000 | –
